Experimental data: US9868748B2, “Thiazolopyrrolidine inhibitors of ROR- γ” (Vitae Pharmaceuticals, Inc., priority 2013, dated 2018)
Read-outs that look alike come from different tables or passages of the source.

How the values were obtained:
[1] = target: full-length RORγt in Jurkat cells (Homo sapiens (Human), UniProt P51449); assay: RORγt 5xRORE Assay in Jurkat Cells (Assay 2); assay type: cell-based; conditions: Nanoluc luciferase reporter, 16-18 hrs
Experimental: [formula] RORγt 5xRORE Assay in Jurkat Cells (Assay 2)
Compounds of the present invention were tested for RORγ inverse agonist activity in a cell-based, transcriptional activity assay. Secreted Nanoluc® luciferase was used as a reporter for transcriptional activity of the full-length RORγt in Jurkat cells (ATCC, Cat. # TIB-152). A reporter plasmid was constructed by inserting 5 repeats of the ROR Response Element (RORE) […] (SEQ ID NO:1) into a commercially available promoterless plasmid pNL1.3[secNluc] (Promega, Cat. # N1021) using KpnI and HindIII restriction sites. The expression plasmid for RORγt was purchased (Geneocopoeia, Cat. # EX-T6988-M02). Jurkat cells (30 million cells) were transfected with 11 μg of EX-T6988-MO2 and 26 μg of the reporter plasmid in OptiMEM® media using Lipofectamine® LTX and Plus™ reagents (Life Technologies, Cat. #15338-100). After 5-6 h of incubation at 37° C./5% CO2, the cells were collected, resuspended in phenol-red free RPMI media containing 10% (v/v) delipidated FBS (Hyclone, Cat. # SH30855.03) and dispensed into 96-well clear bottom tissue culture plates (CoStar, Cat. #3603), at 80,000 cells per well. Tested compounds were added to the cells in the same media (final concentration of DMSO was 0.1% (v/v)), and the plates were incubated at 37° C./5% CO2 for 16-18 hrs. Luciferase activity in the conditioned supernatants was determined with NanoGlo® assay reagents (Promega, Cat. # N1130).

[2] = target: recombinant RORγ Ligand Binding Domain (LBD) protein (Homo sapiens (Human), UniProt P51449); assay: Radio-Ligand RORγ Binding Assay (Assay 1); conditions: competition with 25-hydroxy [26,27-3H]-cholesterol, SPA; Table 9; read-out: RORγ Binding Ki Range*
Experimental: Radio-Ligand RORγ Binding Assay (Assay 1)
Compounds of the present invention were tested for ability to bind to RORγ in a cell-free competition assay with commercially available radio-ligand (RL), 25-hydroxy [26,27-^3H]— cholesterol (PerkinElmer, Cat. # NET674250UC), for a ligand binding site on a recombinant RORγ Ligand Binding Domain (LBD) protein expressed as a 6×His-Glutathione-S-Transferase (GST) fusion (“6×His” disclosed as SEQ ID NO: 2). The assay was performed in 96-well SPA plates (PerkinElmer, Cat. #1450-401) in 50 mM HEPES buffer, pH 7.4, containing 150 mM NaCl, 5 mM MgCl2, 10% (v/v) glycerol, 2 mM CHAPS, 0.5 mM β-octylglucopyranoside and 5 mM DTT. Tested compounds were dissolved in DMSO, and semi-log (3.162×) serial dilutions of the compounds were prepared in the same solvent. Two μL of the DMSO solutions were mixed with 28 μL of 8.6 nM 25-hydroxy [26,27-^3H]— cholesterol and 50 μL of 24 nM RORγ LBD. The plate was shaken at 700 rpm for 20 min and incubated for 10 min at rt, after which 40 μL of poly-Lys YSi SPA beads (PerkinElmer, Cat. # RPNQ0010) were added to achieve 50 μg of the beads per well. The plate was incubated on an orbital shaker for 20 min and then for 10 min without agitation at rt. SPA signal for tritium beta radiation was registered on PerkinElmer Microbeta plate reader. Percent inhibition values were calculated based on the high signal obtained with DMSO control and the low signal observed with 10 μM standard RORγ inverse agonist T0901317 (SigmaAldrich, Cat. # T2320). The percent inhibition vs. concentration data were fit into a four-parameter model, and […] values were calculated from the fit as the concentrations corresponding to the inflection points on the dose-response curves. Inhibitory constants (Ki) were calculated using the following equation, where [RL] is the concentration in the assay and KD is a dissociation constant of 25-hydroxy [26,27-^3H]-cholesterol: […]

[3] = Table 9, read-out: RORγt5X IC50 Range*
[4] = Table 8, read-out: RORγt5X IC50 Range*

Sequence of recombinant RORγ Ligand Binding Domain (LBD) protein (P51449 269-508): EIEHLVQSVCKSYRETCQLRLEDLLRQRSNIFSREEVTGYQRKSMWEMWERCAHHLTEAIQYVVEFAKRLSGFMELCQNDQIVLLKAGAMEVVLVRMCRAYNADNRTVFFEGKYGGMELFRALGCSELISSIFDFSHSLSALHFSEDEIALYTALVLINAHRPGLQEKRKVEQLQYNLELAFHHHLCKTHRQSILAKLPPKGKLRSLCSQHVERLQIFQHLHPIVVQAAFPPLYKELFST
Sequence of full-length RORγt in Jurkat cells (P51449 other isoform, or with tags, fused parts or gaps): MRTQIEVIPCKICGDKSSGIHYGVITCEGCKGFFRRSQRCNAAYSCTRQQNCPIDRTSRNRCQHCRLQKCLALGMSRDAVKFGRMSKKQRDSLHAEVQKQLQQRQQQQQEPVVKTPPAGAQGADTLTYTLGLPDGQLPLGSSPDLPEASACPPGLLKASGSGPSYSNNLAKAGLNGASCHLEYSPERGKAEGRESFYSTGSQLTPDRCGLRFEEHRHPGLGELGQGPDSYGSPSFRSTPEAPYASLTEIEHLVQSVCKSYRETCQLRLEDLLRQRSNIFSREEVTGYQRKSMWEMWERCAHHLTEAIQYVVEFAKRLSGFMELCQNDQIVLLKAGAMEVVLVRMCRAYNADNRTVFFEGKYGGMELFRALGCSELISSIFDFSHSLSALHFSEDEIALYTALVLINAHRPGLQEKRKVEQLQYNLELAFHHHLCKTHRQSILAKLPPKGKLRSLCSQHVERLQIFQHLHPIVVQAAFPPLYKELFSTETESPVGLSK

Row | Compound | IC50 [1, 3] [nM] | Ki [2] [nM] | IC50 [1, 4] [nM]
1 | CCS(=O)(=O)c1ccc(CC(=O)Nc2nc3c(s2)CN(CC2CCn4c(C)nnc4C2)[C@H]3C(C)C)cc1 (stereo partly drawn) | > 1000 | 100 to 1000 | 
2 | CC(C)Oc1ccc(CC(=O)Nc2nc3c(s2)CN(Cc2ccc(Cl)cc2)[C@H]3C(C)C)cc1 | > 1000 | 100 to 1000 | 
3 | CC(C)[C@H]1c2nc(NC(=O)Cc3ccc(-c4nnnn4C)cc3)sc2CN1Cc1ccc(Cl)cc1 | > 1000 | 100 to 1000 | 
4 | CC(C)[C@H]1c2nc(NC(=O)Cc3ccc(Br)cc3)sc2CN1Cc1ccc(Cl)cc1 | > 1000 | 100 to 1000 | 
5 | CC(C)[C@H]1c2nc(NC(=O)Cc3ccc(Cl)cc3)sc2CN1Cc1ccc(Cl)cc1 | > 1000 | < 100 | 
6 | CC(C)[C@H]1c2nc(NC(=O)Cc3ccc(-c4nnn[nH]4)cc3)sc2CN1Cc1ccc(Cl)cc1 | > 1000 | 100 to 1000 | 
7 | COc1ccc(CC(=O)Nc2nc3c(s2)CN(Cc2ccc(Cl)cc2)[C@H]3C(C)C)cc1 | > 1000 | < 100 | 
8 | CC(C)[C@H]1c2nc(NC(=O)Cc3ccccc3)sc2CN1Cc1ccc(Cl)cc1 | > 1000 | 100 to 1000 | 
9 | CCS(=O)(=O)c1ccc(CC(=O)Nc2nc3c(s2)CN(CC2CCOCC2)[C@H]3C(C)C)cc1 | > 1000 | < 100 | 
10 | CC(C)[C@H]1c2nc(NC(=O)Cc3ccc(S(C)(=O)=O)cc3)sc2CN1Cc1ccc(-c2nnn[nH]2)cc1 | > 1000 | 100 to 1000 | 
11 | CCS(=O)(=O)c1ccc(CC(=O)Nc2nc3c(s2)CN(C[C@H]2CC[C@@H](C(=O)O)CC2)[C@H]3C(C)C)cc1 | > 1000 | 100 to 1000 | 
12 | CCS(=O)(=O)c1ccc(CC(=O)Nc2nc3c(s2)CN(Cc2ccc(=O)n(C)c2)[C@H]3C(C)C)cc1 | 100 to 1000 | < 100 | 
13 | CC(C)[C@H]1c2nc(NC(=O)Cc3ccc(S(C)(=O)=O)cc3)sc2CN1Cc1ccc(C(F)(F)F)nn1 | 100 to 1000 | 100 to 1000 | 
14 | CCS(=O)(=O)c1cnc(CNC(=O)c2nc3c(s2)CN(Cc2ccc(C#N)cc2)[C@H]3C(C)C)nc1 | 100 to 1000 | < 100 | 
15 | CCS(=O)(=O)c1cnc(CNC(=O)c2nc3c(s2)CN(Cc2ccc(C(F)(F)F)cc2)[C@H]3C(C)C)nc1 | 100 to 1000 | < 100 | 
16 | CC(C)[C@H]1c2nc(NC(=O)Cc3ccc(C#N)cc3)sc2CN1Cc1ccc(C#N)c(OC(F)F)c1 | 100 to 1000 | < 100 | 
17 | Cc1cc(CN2Cc3sc(NC(=O)Cc4ccc(C#N)cc4)nc3[C@@H]2C(C)C)ccc1C#N | 100 to 1000 | < 100 | 
18 | CCS(=O)(=O)c1ccc(CC(=O)Nc2nc3c(s2)CN(C[C@H]2CC[C@@H](C(F)(F)F)CC2)C3C(C)C)cc1 (stereo partly drawn) | > 1000 | < 100 | 
19 | CCS(=O)(=O)c1ccc(CC(=O)Nc2nc3c(s2)CN(Cc2ccc(C#N)cc2C(F)(F)F)[C@H]3C(C)C)cc1 | > 1000 | < 100 | 
20 | CCS(=O)(=O)c1ccc(CC(=O)Nc2nc3c(s2)CN(Cc2c(F)cc(C#N)cc2F)[C@H]3C(C)C)cc1 | 100 to 1000 | < 100 | 
21 | CCS(=O)(=O)c1ccc(CC(=O)Nc2nc3c(s2)CN(Cc2ccc(C)nn2)[C@H]3C(C)C)cc1 | > 1000 | < 100 | 
22 | CCS(=O)(=O)c1ccc(CC(=O)Nc2nc3c(s2)C(C)N(Cc2ccc(C#N)cc2)[C@H]3C(C)C)cc1 (stereo partly drawn) | 100 to 1000 | < 100 | 
23 | CCOC(=O)c1cnc(N2Cc3sc(NC(=O)Cc4ccc(S(=O)(=O)CC)cc4)nc3[C@]2(C)C(C)C)nc1C(F)(F)F | > 1000 | < 100 | 
24 | CCS(=O)(=O)c1ccc(CC(=O)Nc2nc3c(s2)CN(C[C@@H]2CC[C@@H](C(F)(F)F)N(C)C2)[C@H]3C(C)C)cc1 [I-A30] |  |  | < 100
25 | CCS(=O)(=O)c1ccc(CC(=O)Nc2nc3c(s2)CN(Cc2ccc4c(c2)OC(F)(F)O4)[C@H]3C(C)C)nc1 [I-L3] |  |  | < 100

More lines, now with the values ahead:

Row | IC50 [1, 3] [nM] | Ki [2] [nM] | IC50 [1, 4] [nM] | Compound
26 | 100 to 1000 | < 100 |  | CC(C)[C@H]1c2nc(NC(=O)Cc3ccc(C(C)(C)C#N)cc3)sc2CN1Cc1ccc(Cl)cc1
27 | < 100 | < 100 |  | CCS(=O)(=O)c1ccc(CC(=O)Nc2nc3c(s2)CN(C[C@H]2CC[C@H](O)CC2)[C@H]3C(C)C)cc1
28 | 100 to 1000 | 100 to 1000 |  | CC(C)[C@H]1c2nc(NC(=O)Cc3ccc(F)c(F)c3)sc2CN1Cc1ccc(C(F)(F)F)cc1
29 | < 100 | < 100 |  | CC(C)[C@H]1c2nc(NC(=O)Cc3ccc(S(N)(=O)=O)cc3)sc2CN1Cc1ccc(C(F)(F)F)cc1
30 | < 100 | < 100 |  | CCS(=O)(=O)c1ccc(CC(=O)Nc2nc3c(s2)CN([C@H](C)c2c(F)cc(Cl)cc2F)[C@H]3C(C)C)cc1
31 | < 100 | < 100 |  | CCS(=O)(=O)c1ccc(CC(=O)Nc2nc3c(s2)CN(Cc2ccn(CC(F)(F)F)c(=O)c2)[C@H]3C(C)C)cc1
32 | 100 to 1000 | 100 to 1000 |  | CC(C)[C@H]1c2nc(NC(=O)Cc3ccc(-c4nnn(C)n4)cc3)sc2CN1Cc1ccc(Cl)cc1
33 | 100 to 1000 | < 100 |  | CCS(=O)(=O)c1ccc(CC(=O)Nc2nc3c(s2)CN(C[C@H]2CC[C@H](OC)CC2)[C@H]3C(C)C)cc1
34 | 100 to 1000 | < 100 |  | CCS(=O)(=O)c1ccc(CC(=O)Nc2nc3c(s2)CN(C2CCC(C(F)(F)F)CC2)[C@H]3C(C)C)cc1 (stereo partly drawn)
35 | 100 to 1000 | < 100 |  | CC(C)[C@H]1c2nc(NC(=O)Cc3ccc(S(C)(=O)=O)cc3)sc2CN1Cc1ccn(C(F)F)c(=O)c1
36 | < 100 | < 100 |  | CCS(=O)(=O)c1ccc(CNC(=O)c2nc3c(s2)CN(Cc2ccc4c(c2)OC(F)(F)O4)[C@H]3C(C)C)nc1
37 | 100 to 1000 | < 100 |  | CCS(=O)(=O)c1ccc(CNC(=O)c2nc3c(s2)CN(Cc2ccc4nonc4c2)[C@H]3C(C)C)nc1
38 | < 100 | < 100 |  | CCS(=O)(=O)c1ccc(CC(=O)Nc2nc3c(s2)CN(C[C@H]2CC[C@H](C#N)CC2)[C@H]3C(C)C)cc1
39 | 100 to 1000 | < 100 |  | CCS(=O)(=O)c1ccc(CC(=O)Nc2nc3c(s2)CN(C[C@H]2CC[C@H](C(N)=O)CC2)[C@H]3C(C)C)cc1
40 | < 100 | < 100 |  | CCS(=O)(=O)c1ccc(CC(=O)Nc2nc3c(s2)CN(Cc2ccn(C(F)F)c(=O)c2)[C@H]3C(C)C)cc1
41 | < 100 | < 100 |  | CCS(=O)(=O)c1ccc(CNC(=O)c2nc3c(s2)CN(Cc2ccc(C(F)F)cc2)[C@H]3C(C)C)nc1
42 | 100 to 1000 | < 100 |  | CC[C@H]1c2nc(NC(=O)Cc3ccc(S(=O)(=O)C(F)F)cc3)sc2CN1Cc1ccc(Cl)cc1
43 | 100 to 1000 | 100 to 1000 |  | CCS(=O)(=O)c1ccc(CNC(=O)c2nc3c(s2)CN(Cc2cnc(C(F)(F)F)nc2)[C@H]3C(C)C)cc1
44 | 100 to 1000 | 100 to 1000 |  | CCS(=O)(=O)c1ccc(CNC(=O)c2nc3c(s2)CN(Cc2ccc(C(F)(F)F)nc2)[C@H]3C(C)C)cc1
45 | 100 to 1000 | < 100 |  | CCS(=O)(=O)c1ccc(CC(=O)Nc2nc3c(s2)CN(Cc2ccn(C4CC4)c(=O)c2)[C@H]3C(C)C)cc1
46 | 100 to 1000 | < 100 |  | CC[C@H]1c2nc(NC(=O)Cc3ccc(S(=O)(=O)CC)cc3)sc2CN1Cc1ccc2nc[nH]c2c1
47 | < 100 | < 100 |  | CCS(=O)(=O)c1ccc(CC(=O)Nc2nc3c(s2)CN(Cc2ccc(C(F)(F)F)nn2)[C@H]3C(C)C)cc1
48 | < 100 | < 100 |  | CCS(=O)(=O)c1ccc(CC(=O)Nc2nc3c(s2)CN(Cc2ccc(C(F)(F)F)nc2)C3C(C)C)nc1 (stereo not drawn)
49 | < 100 | < 100 |  | CCS(=O)(=O)c1ccc(CC(=O)Nc2nc3c(s2)C(C)N(Cc2ccc(Cl)cc2)[C@H]3C(C)C)cc1 (stereo partly drawn)
